Experimental data as given in patent publication US20080176828A1, “Treating melanoma with BIS(THIOHYDRAZIDE AMIDES)” (priority 2006, published 2008).
“And” between values parts separate entries of the source, which are not always exact repeats. Identical values can stand only once. Like-named read-outs stand apart in the source and are kept apart here.

Experiments:
melanoma = conditions: currently used melanoma treatments, cited from earlier work
[1] = test system: Stage IV metastatic melanoma
Procedure: Example 1, weekly treatment regimen of compound (1) and paclitaxel combined in Stage IV metastatic melanoma patients in comparison with paclitaxel alone, based on time to progression
The dosages administered were 213 mg/m^2 compound (1), 80 mg/m^2 paclitaxel, and the dosage regimen was 3 weekly doses per each 4 week cycle. Patients were treated until progression of the disease. […] The tumor assessments were performed at baseline, Cycle 2, and every other Cycle thereafter.

[2] = Kaplan-Meier estimate, efficacy sample, Stage IV melanoma patients, 3 weekly doses per 4 week cycle
[3] = RECIST, efficacy sample, number of patients (% of group)
[4] = own trial arms as listed in Tables 3 and 4

Question: For `CNC(=O)c1cc(Oc2ccc(NC(=O)Nc3ccc(Cl)c(C(F)(F)F)c3)cc2)ccn1` [Sorafenib], which PR (melanoma) is on record?
Answer: 2.6%

Question: With `CC(=O)O[C@H]1C(=O)[C@@]2(C)[C@H]([C@H](OC(=O)c3ccccc3)[C@]3(O)C[C@H](OC(=O)[C@H](O)[C@@H](NC(=O)c4ccccc4)c4ccccc4)C(C)=C1C3(C)C)[C@]1(OC(C)=O)CO[C@@H]1C[C@@H]2O` [Paclitaxel] as the molecule, how does the “Time to Progression, 75th percentile (95% CI)” value [1, 2] read?
Answer: 106.0 (61.0, 218.0) days

Question: What about the “Time to Progression, Median (95% CI)” value [1, 2] of the same molecule?
Answer: 56.0 (49.0, 105.0) days

Question: And the “Best Overall Response: Complete Response (CR)” value [1, 3]?
Answer: 0

Question: And the “Best Overall Response: Partial Response (PR)” value [1, 3]?
Answer: 1 (3.7%)

Question: What about the “Best Overall Response: Progressive Disease (PD)” value [1, 3] of the same molecule?
Answer: 16 (59.3%)

Question: And the “CR + PR (95% CI)” value ([1]; RECIST, efficacy sample, two-sided Fisher's exact test p-value 0.149)?
Answer: 3.7% (0.1%, 19.0%)

Question: What about the “patients with stable disease” value ([1]; Table 2) of the same molecule?
Answer: 37%

Question: What about the CR [1, 4] of the same molecule?
Answer: 0%

Question: What about the OR [1, 4] of the same molecule?
Answer: 3.7%

Question: And the PR [1, 4]?
Answer: 3.7%

Question: And the TTP [1, 4]?
Answer: 57 days

Question: What about the OR (melanoma; listed as Paclitaxel (Taxol)) of the same molecule?
Answer: 12% and 17.8%

Question: Which CR (melanoma) does the source give for `CC/C(=C(\c1ccccc1)c1ccc(OCCN(C)C)cc1)c1ccccc1` [Tamoxifen] here?
Answer: 1%

Question: And the OR (melanoma)?
Answer: 4.9%

Question: And the PR (melanoma)?
Answer: 3.9%

Question: With `CCOP(=O)(OCC)C(C)NC(=O)N(CCCl)N=O` (stereo not shown) [Fotemustine] as the molecule, how does the OR (melanoma) read?
Answer: 15.2%

Question: And the Survival (melanoma)?
Answer: 7.3 months

Question: And the TTP (melanoma)?
Answer: 55 days
